Results taken from article PMC11748363, “Antimicrobial and Antiproliferative Properties of 2‐Phenyl‐N‐(Pyridin‐2‐yl)acetamides” (Chemical Biology & Drug Design, 2025).
In brackets after ≈: the same amount, converted by molar mass. Like-named read-outs stand apart in the source and are kept apart here.

Legend:
[1] = test system: Pseudomonas aeruginosa CCM 3955, ATCC 27853; assay: Antibacterial microdilution broth MIC, PA; format: cell-based
[2] = test system: Klebsiella pneumoniae CCM 4415, ATCC 10031; assay: Antibacterial microdilution broth MIC, KP
[3] = test system: Candida tropicalis CCM 8264, ATCC 750; assay: Antifungal microdilution broth MIC, CT
HK‐2 cell line = assay: Cytotoxicity CellTiter 96, HK-2 normal cell line; format: cell-based; settings: Homo sapiens, 24 h incubation
Method: (§1) The cytotoxicity of final compounds was determined in human hepatocellular carcinoma cell line HepG2. Additional testing of selected compounds was performed on human epithelial kidney cancer cell line A498, human prostate cancer cell line PC‐3, human glioblastoma cell line U‐87 MG, and normal human proximal tubule cell line HK‐2.
1.4. Cytotoxicity determination […]
(§2) For subculturing, the cells were harvested after trypsin/EDTA (Sigma–Aldrich) treatment at 37 °C. To evaluate cytotoxicity, the cells treated with the tested substances were used as experimental groups whereas untreated HepG2 cells served as controls. The cells were seeded in density 10,000 cells per well in a 96 well plate. The next day the cells were treated with each of the tested substances dissolved in DMSO. The tested substances were […]
in triplicates according to their solubility. Simultaneously, the controls representing 100% cell viability, 0% cell viability (the cells treated with 10% DMSO), no cell control and vehiculum controls were also prepared in triplicates. After 24 h incubation in a humidified atmosphere containing 5% CO2 at […], the reagent from the kit CellTiter 96 AQueous One Solution Cell Proliferation Assay (CellTiter 96; PROMEGA, Fitchburg, USA) was added. After 2h incubation at 37 °C, absorbance of samples was recorded at 490 nm (TECAN, Infinita M200, Austria). A standard toxicological parameter IC50 was calculated by nonlinear regression from a semilogarithmic plot of incubation concentration versus percentage of absorbance relative to untre ated controls using GraphPad Prism 8 software.
Human epithelial kidney carcinoma A498 cell line, obtained from American Type Culture Collection (ATCC, Manassas, VA, USA, catalogue No.: HTB -44), was cultured in RPMI medium, Human normal kidney proximal tubule HK-2 cell line obtained from ATCC (ATCC, Manassas, VA, USA, catalogue No.:
CRL-2190) was cultured in DMEM High Glucose medium, Human prostate adenocarcinoma PC-3 cell line, obtained from ATCC (Manassas, VA, USA, catalogue No.: 90112714), was cultured in a Kaighn's Modification of Ham's F-12 Medium and human glioblastoma astrocytoma U-87 MG cell line, obtained from ECACC (ECACC, Salisbury, UK, catalogue No.: 89081402) was cultured in DMEM High Glucose medium. All cultures were supplemented with 10% fetal bovine serum, 1% non-essential amino acids (A498, HK-2 and U-87 MG), 1% sodium pyruvate (A498, HK-2 and U-87 MG) and 2 mM L-glutamine. […]
Simultaneously, the controls representing 100% cell viability, 0% cell viability (the cells treated with 10% DMSO), no cell control and vehiculum controls were also prepared in triplicates. […] Eventually, a colorimetric assay reagent CellTiter 96 AQueous One Solution Cell Proliferation Assay was added, and absorption was measured.

[4] = test system: Escherichia coli CCM 3954, ATCC 25922; assay: Antibacterial microdilution broth MIC, EC; format: cell-based
[5] = test system: Candida parapsilosis CCM 8260, ATCC 22019; assay: Antifungal microdilution broth MIC, CP; settings: Lodderomyces parapsilosis
[6] = test system: Staphylococcus epidermidis CCM 4418, ATCC 12228; assay: Antibacterial microdilution broth MIC, SE; format: cell-based
[7] = test system: Staphylococcus aureus subsp. aureus CCM 4750, ATCC 43300 (MRSA); assay: Antibacterial microdilution broth MIC, MRSA; format: cell-based; settings: Staphylococcus aureus
[8] = test system: Aspergillus flavus CCM 8363; assay: Antifungal microdilution broth MIC, AFla
[9] = test system: Enterococcus faecalis CCM 4224, ATCC 29212; assay: Antibacterial microdilution broth MIC, EF; format: cell-based
[10] = test system: Mycolicibacterium smegmatis DSM 43465; assay: Antimycobacterial microdilution broth MIC (resazurin), M. smegmatis; format: cell-based; settings: DSM43465, read-out: MIC M. smegmatis
[11] = test system: Lichtheimia corymbifera CCM 8077; assay: Antifungal microdilution broth MIC, LC
PC‐3 cell line = assay: Cytotoxicity CellTiter 96, PC-3; format: cell-based; settings: Homo sapiens, 24 h incubation
Method: as §1
(§3) Cytotoxicity determination […]
as §2
(§4) in triplicates according to their solubility. Simultaneously, the controls representing 100% cell viability, 0% cell viability (the cells treated with 10% DMSO), no cell control and vehiculum controls were also […]
(§5) the reagent from the kit CellTiter 96 AQueous One Solution Cell Proliferation Assay (CellTiter 96; PROMEGA, Fitchburg, USA) was added. After 2h incubation at 37 °C, absorbance of samples was recorded at 490 nm (TECAN, Infinita M200, Austria). A standard toxicological parameter IC50 was calculated by nonlinear regression from a semilogarithmic plot of incubation concentration versus percentage of absorbance relative to untre ated controls using GraphPad Prism 8 software. […]
(§6) Kaighn's Modification of Ham's F-12 Medium and human glioblastoma astrocytoma U-87 MG cell line, […]
(§7) Glucose medium. All cultures were supplemented with 10% fetal bovine serum, 1% non-essential amino acids (A498, HK-2 and U-87 MG), 1% sodium pyruvate (A498, HK-2 and U-87 MG) and 2 mM L-glutamine. All cell culture consumables were purchased from Merck (Darmstadt, Germany). The cells

U‐87 MG cell line = assay: Cytotoxicity CellTiter 96, U-87 MG; format: cell-based; settings: Homo sapiens, 24 h incubation
Method: as §1, §3, §2, §4, §5, §6, §7

[12] = CCM8363, 24 h, read-out: MIC AFla 24h
[13] = CCM8363, 48 h, read-out: MIC AFla 48h
[14] = CCM8077, 24 h, read-out: MIC LC 24h
[15] = CCM8077, 48 h, read-out: MIC LC 48h

For `COc1ccc(CC(=O)Nc2cccc(Cl)n2)cc1` [Compound 12, 2-(4-methoxyphenyl)-N-(6-chloropyridin-2-yl)acetamide], the MIC ([1]; 24 h, read-out: MIC PA 24h) was greater than 500 µM, the MIC ([1]; 48 h, read-out: MIC PA 48h) was greater than 500 µM and the “MIC KP 24h” value [2] was greater than 500 µM. For the same compound, the “MIC KP 48h” value [2] was greater than 500 µM, the MIC ([3]; 24 h, read-out: MIC CT 24h) was greater than 500 µM and the MIC ([3]; 48 h, read-out: MIC CT 48h) was greater than 500 µM. It also gave an IC50 (HK‐2 cell line) greater than 250 µM, an MIC ([4]; 24 h, read-out: MIC EC 24h) greater than 500 µM and an MIC ([4]; 48 h, read-out: MIC EC 48h) greater than 500 µM. It also gave an MIC ([5]; 24 h, read-out: MIC CP 24h) greater than 500 µM, an MIC ([5]; 48 h, read-out: MIC CP 48h) greater than 500 µM and an MIC ([6]; 24 h, read-out: MIC SE 24h) of 500 µM (≈ 138 µg/mL). For the same compound, the MIC ([6]; 48 h, read-out: MIC SE 48h) was greater than 500 µM, the MIC ([7]; 24 h, read-out: MIC MRSA 24h) was 500 µM (≈ 138 µg/mL) and the MIC ([7]; 48 h, read-out: MIC MRSA 48h) was greater than 500 µM. The MIC [8, 12] was greater than 500 µM, the MIC [8, 13] was greater than 500 µM and the MIC ([9]; 24 h, read-out: MIC EF 24h) was 500 µM (≈ 138 µg/mL). For the same compound, the MIC ([9]; 48 h, read-out: MIC EF 48h) was 500 µM (≈ 138 µg/mL), the MIC [10] was 62.5 µg/mL (≈ 226 µM) and the MIC [11, 14] was greater than 500 µM. The MIC [11, 15] was greater than 500 µM.
For `O=C(Cc1cccc(Cl)c1)Nc1ccc(Cl)cn1` [Compound 17, 2-(3-chlorophenyl)-N-(5-chloropyridin-2-yl)acetamide], the MIC ([1]; 24 h, read-out: MIC PA 24h) was greater than 500 µM, the MIC ([1]; 48 h, read-out: MIC PA 48h) was greater than 500 µM and the “MIC KP 24h” value [2] was greater than 500 µM. For the same compound, the “MIC KP 48h” value [2] was greater than 500 µM, the IC50 (PC‐3 cell line) was 213 µM and the MIC ([3]; 24 h, read-out: MIC CT 24h) was greater than 500 µM. It also gave an MIC ([3]; 48 h, read-out: MIC CT 48h) greater than 500 µM, an IC50 (HK‐2 cell line) of 138 µM and an MIC ([4]; 24 h, read-out: MIC EC 24h) greater than 500 µM. It also gave an MIC ([4]; 48 h, read-out: MIC EC 48h) greater than 500 µM, an MIC ([5]; 24 h, read-out: MIC CP 24h) greater than 500 µM and an MIC ([5]; 48 h, read-out: MIC CP 48h) greater than 500 µM. For the same compound, the MIC ([6]; 24 h, read-out: MIC SE 24h) was greater than 500 µM, the MIC ([6]; 48 h, read-out: MIC SE 48h) was greater than 500 µM and the MIC ([7]; 24 h, read-out: MIC MRSA 24h) was greater than 500 µM. It also gave an MIC ([7]; 48 h, read-out: MIC MRSA 48h) greater than 500 µM, an MIC [8, 12] greater than 500 µM and an MIC [8, 13] greater than 500 µM. For the same compound, the MIC ([9]; 24 h, read-out: MIC EF 24h) was greater than 500 µM, the MIC ([9]; 48 h, read-out: MIC EF 48h) was greater than 500 µM and the IC50 (U‐87 MG cell line) was 161 µM. It also gave an MIC [10] greater than 500 µg/mL, an MIC [11, 14] greater than 500 µM and an MIC [11, 15] greater than 500 µM.
`O=C(Cc1ccccc1C(F)(F)F)Nc1cccc(Cl)n1` [Compound 24] was tested, and the MIC ([1]; 24 h, read-out: MIC PA 24h) was greater than 500 µM, the MIC ([1]; 48 h, read-out: MIC PA 48h) was greater than 500 µM and the “MIC KP 24h” value [2] was greater than 500 µM. The “MIC KP 48h” value [2] was greater than 500 µM, the IC50 (PC‐3 cell line) was greater than 100 µM and the MIC ([3]; 24 h, read-out: MIC CT 24h) was greater than 500 µM. For the same compound, the MIC ([3]; 48 h, read-out: MIC CT 48h) was greater than 500 µM, the IC50 (HK‐2 cell line) was 247 µM and the MIC ([4]; 24 h, read-out: MIC EC 24h) was greater than 500 µM. For the same compound, the MIC ([4]; 48 h, read-out: MIC EC 48h) was greater than 500 µM, the MIC ([5]; 24 h, read-out: MIC CP 24h) was greater than 500 µM and the MIC ([5]; 48 h, read-out: MIC CP 48h) was greater than 500 µM. For the same compound, the MIC ([6]; 24 h, read-out: MIC SE 24h) was greater than 500 µM, the MIC ([6]; 48 h, read-out: MIC SE 48h) was greater than 500 µM and the MIC ([7]; 24 h, read-out: MIC MRSA 24h) was greater than 500 µM. The MIC ([7]; 48 h, read-out: MIC MRSA 48h) was greater than 500 µM, the MIC [8, 12] was greater than 500 µM and the MIC [8, 13] was greater than 500 µM. The MIC ([9]; 24 h, read-out: MIC EF 24h) was greater than 500 µM, the MIC ([9]; 48 h, read-out: MIC EF 48h) was greater than 500 µM and the IC50 (U‐87 MG cell line) was greater than 250 µM. For the same compound, the MIC [10] was greater than 500 µg/mL, the MIC [11, 14] was greater than 500 µM and the MIC [11, 15] was greater than 500 µM.
For `O=C(Cc1cccc(C(F)(F)F)c1)Nc1ccc(Cl)cn1` [Compound 26], the MIC ([1]; 24 h, read-out: MIC PA 24h) was greater than 500 µM, the MIC ([1]; 48 h, read-out: MIC PA 48h) was greater than 500 µM and the “MIC KP 24h” value [2] was greater than 500 µM. The “MIC KP 48h” value [2] was greater than 500 µM, the IC50 (PC‐3 cell line) was 73.1 µM and the MIC ([3]; 24 h, read-out: MIC CT 24h) was greater than 500 µM. It also gave an MIC ([3]; 48 h, read-out: MIC CT 48h) greater than 500 µM, an IC50 (HK‐2 cell line) of 29.9 µM and an MIC ([4]; 24 h, read-out: MIC EC 24h) greater than 500 µM. It also gave an MIC ([4]; 48 h, read-out: MIC EC 48h) greater than 500 µM, an MIC ([5]; 24 h, read-out: MIC CP 24h) greater than 500 µM and an MIC ([5]; 48 h, read-out: MIC CP 48h) greater than 500 µM. The MIC ([6]; 24 h, read-out: MIC SE 24h) was greater than 500 µM, the MIC ([6]; 48 h, read-out: MIC SE 48h) was greater than 500 µM and the MIC ([7]; 24 h, read-out: MIC MRSA 24h) was greater than 500 µM. For the same compound, the MIC ([7]; 48 h, read-out: MIC MRSA 48h) was greater than 500 µM, the MIC [8, 12] was greater than 500 µM and the MIC [8, 13] was greater than 500 µM. For the same compound, the MIC ([9]; 24 h, read-out: MIC EF 24h) was greater than 500 µM, the MIC ([9]; 48 h, read-out: MIC EF 48h) was greater than 500 µM and the IC50 (U‐87 MG cell line) was 158 µM. The MIC [10] was 125 µg/mL (≈ 397 µM), the MIC [11, 14] was greater than 500 µM and the MIC [11, 15] was greater than 500 µM.
